{"source": "patent US10500226B2", "about": "“Alginate compositions and uses thereof” (Hadasit Medical Research Services and Development Ltd., priority 2012, dated 2019)", "system": "serum ALT (alanine aminotransferase)", "test": "Concanavalin A mouse model: serum ALT", "format": "in vivo, C57BL/6 (B6) mice", "excerpt": "Injection of the T-cell mitogenic plant lectin concanavalin A (Con A) to non-sensitized mice results in hepatic apoptosis that precedes necrosis. The concanvalin A (Con A) model is a widely utilized mouse model, which mimics many aspects of human autoimmune hepatitis. It induces a massive liver necrosis in mice, simultaneously with lymphocyte infiltration into the liver, high levels of apoptotic hepatocytes and elevated serum alanine aminotransferase (ALT) and aspartate aminotransferase (AST). The liver injury is mediated by natural killer T (NKT) cells. Several apoptosis-related effector molecules, IFN-γ and TNF-α take part in the NKT cell-mediated liver injury. The immune-mediated liver injury which develops in the Con A model is very rapid, taking less than 48 hours. The peak for liver enzymes and pro-inflammtory cytokines is after less than 15 hours, making the model particularly useful for screening anti-inflammatory agents.\nTested solutions were administered intraperitoneally by injection of a volume of 200 μl per mouse or by administration per os of 250 μl per mouse, 1 hour before concanavalin A (Con A) administration. Saline (0.15 M NaCl) served as a negative control test solution.\nCon A was dissolved at a concentration of 16 mg/kg in 200 μl of 50 mM Tris (pH 7), with 150 mM NaCl, and 4 mM CaCl2, and injected (at a dose of 0.4 mg/mouse) intravenously into the tail vein of mice. Sera from individual mice were obtained 6, 24 and 48 hours (14 hours in some experiments) after Con A injection. All mice were sacrificed after 48 hours (14 hours in some experiments).\nSerum albumin levels after 48 hours were measured by an automatic analyzer.\nThe solutions were administered intraperitoneally to adult male C57BL mice at a dose of 200 μl per mouse. One hour later, the mice were challenged with an intravenous injection of concanavalin A (Con A), as described hereinabove. […] Each treatment group contained 4-5 mice. Serum levels of ALT, albumin, and the pro-inflammatory cytokines IL-6 and interferon-γ (IFNγ) were determined as described hereinabove."}
{"smiles": "C[C@@H]1C[C@H]2[C@@H]3CCC4=CC(=O)C=C[C@]4(C)[C@@]3(F)[C@@H](O)C[C@]2(C)[C@@]1(O)C(=O)CO", "note": "[Dexamethasone]", "values": [{"measurement": "serum ALT levels", "setting": "2% solutions i.p., 14 hours after Con A administration", "result": "203±14", "unit": "units/liter"}, {"measurement": "Serum levels of ALT", "setting": "Table 3, 200 μl i.p. 1 hour before Con A (dexamethasone per os), 6 hours after Con A", "result": "146 ± 50", "unit": "units/liter"}, {"measurement": "Serum levels of ALT", "setting": "Table 3, 200 μl i.p. 1 hour before Con A (dexamethasone per os), 24 hours after Con A", "result": "162 ± 50", "unit": "units/liter"}, {"measurement": "Serum levels of ALT", "setting": "Table 3, 200 μl i.p. 1 hour before Con A (dexamethasone per os), 48 hours after Con A", "result": "69 ± 19", "unit": "units/liter"}, {"measurement": "Serum levels of ALT", "setting": "Table 4 (hyaluronan comparison), i.p. before Con A, 6 hours after Con A", "result": "83 ± 21", "unit": "units/liter"}, {"measurement": "Serum levels of ALT", "setting": "Table 4 (hyaluronan comparison), i.p. before Con A, 24 hours after Con A", "result": "68 ± 4", "unit": "units/liter"}, {"measurement": "Serum levels of ALT", "setting": "Table 4 (hyaluronan comparison), i.p. before Con A, 48 hours after Con A", "result": "76 ± 23", "unit": "units/liter"}, {"measurement": "Serum levels of ALT", "setting": "Table 5 (biotinylated alginate, 2%), before Con A, 6 hours after Con A", "result": "74 ± 5", "unit": "units/liter"}, {"measurement": "Serum levels of ALT", "setting": "Table 5 (biotinylated alginate, 2%), before Con A, 24 hours after Con A", "result": "62 ± 14", "unit": "units/liter"}, {"measurement": "Serum levels of ALT", "setting": "Table 5 (biotinylated alginate, 2%), before Con A, 48 hours after Con A", "result": "65 ± 16", "unit": "units/liter"}, {"measurement": "Serum levels of ALT", "setting": "Table 6 (γ-irradiated alginate comparison), 6 hours after Con A", "result": "28 ± 10", "unit": "units/liter"}, {"measurement": "Serum levels of ALT", "setting": "Table 6 (γ-irradiated alginate comparison), 24 hours after Con A", "result": "126 ± 37", "unit": "units/liter"}, {"measurement": "Serum levels of ALT", "setting": "Table 6 (γ-irradiated alginate comparison), 48 hours after Con A", "result": "68 ± 7", "unit": "units/liter"}, {"measurement": "Serum levels of ALT", "setting": "Table 7, per os 250 μl 1 hour before Con A, 6 hours after Con A", "result": "46 ± 6", "unit": "units/liter"}, {"measurement": "Serum levels of ALT", "setting": "Table 7, per os 250 μl 1 hour before Con A, 24 hours after Con A", "result": "65 ± 10", "unit": "units/liter"}, {"measurement": "Serum levels of ALT", "setting": "Table 7, per os 250 μl 1 hour before Con A, 48 hours after Con A", "result": "139 ± 26", "unit": "units/liter"}, {"measurement": "Serum levels of ALT", "setting": "Table 8, per os, repeat with other alginates, 6 hours after Con A", "result": "33 ± 12", "unit": "units/liter"}, {"measurement": "Serum levels of ALT", "setting": "Table 8, per os, repeat with other alginates, 24 hours after Con A", "result": "37 ± 10", "unit": "units/liter"}, {"measurement": "Serum levels of ALT", "setting": "Table 8, per os, repeat with other alginates, 48 hours after Con A", "result": "31 ± 5", "unit": "units/liter"}]}
